From patent publication US20240245051A1, “DISINFECTING, ANTIMICROBIAL AND PRESERVATIVE COMPOSITION” (BJBIOCHEM CO., LTD., priority 2021, published 2024)

Assays:
Experiment in all cases: Antimicrobial test, broth dilution method (MIC)
Assay type in all cases: cell-based
Settings in all cases: single compounds of Comparative Examples
[1] = test system: P. aeruginosa
Procedure: (§1) The antimicrobial activity of the test solution was measured using a broth dilution method. The concentration of the test solution that was treated was diluted from the highest concentration of 5% to the lowest concentration of 0.0001%. The test solution was cultured in the presence of the strain and then the turbidity of the tube was determined. […] After the primary test described as above, the concentration of the test solution that was treated was further subdivided and a secondary test was conducted to obtain an accurate minimum inhibitory concentration (MIC).
(§2) Test strains E. coli, S. aureus, and P. aeruginosa were inoculated into tryptic soy broth and incubated at 35±2° C. for 16 to 24 hours. C. albicans was inoculated into Sabouraud dextrose broth and cultured at 35° C. for 24 hours. A. niger was seeded on potato dextrose agar and cultured at (25±1°) C for 7 days, sterile physiological saline was dispensed into a solid medium on which the bacteria grew, and spores were removed using a spreader and then diluted in sterile physiological saline.
(§3) A liquid medium was put into the tube and the concentration of the test solution that was treated was diluted from the highest concentration of 5% to the lowest concentration of 0.0001%. The liquid media used for E. coli, S. aureus, and P. aeruginosa (bacteria) were tryptic soy broth, and the liquid media used for C. albicans, and A. niger (fungi) were Sabouraud dextrose broth.
(§4) E. coli, S. aureus, and P. aeruginosa of the strains were inoculated at a concentration of 1×10^5 CFU/mL in the test tube. The tubes treated with the test solution were incubated at 35±2° C. for 16 to 24 hours. C. albicans and A. niger were inoculated at a concentration of 1×10^4 CFU/mL in the test tube. After treatment with the test solution was completed, C. albicans was cultured at 35° C. for 24 to 48 hours and A. niger was cultured at 25° C. for 46 to 50 hours. A medium tube, to which the bacterial solution was not added, was used as a negative control, and a tube containing the medium inoculated with only the bacterial solution without the test solution was used as a growth control. In addition, in order to determine the antimicrobial activity of dipropylene glycol itself used as a solvent, the MIC of the test bacteria for the solvent was measured under the same conditions as in the sample.

[2] = test system: E. coli
Procedure: as §1, §2, §3, §4

[3] = test system: S. aureus
Procedure: as §1, §2, §3, §4

[4] = test system: C. albicans
Procedure: as §1, §2, §3, §4

[5] = test system: A. niger
Procedure: as §1, §2, §3, §4

Structure (SMILES) | minimum inhibitory concentration (MIC), P. Aeruginosa [1] [%] | minimum inhibitory concentration (MIC), E. coli [2] [%] | minimum inhibitory concentration (MIC), S. Aureus [3] [%] | minimum inhibitory concentration (MIC), C. albicans [4] [%] | minimum inhibitory concentration (MIC), A. niger [5] [%]
CCCCCCCCCCCCNCC(O)CO (centres unmarked) [Comparative Example 1, (3-dodecylamino)propane-1,2-diol] | 0.03 | 0.01 | 0.01 | 0.01 | 0.09
CCCCC(O)CO (centres unmarked) [Comparative Example 2, Hexane-1,2-diol] | 1 | 1 | 2 | 2 | 0.5
CCCCCCC(O)CO (centres unmarked) [Comparative Example 3, Octane-1,2-diol] | 0.5 | 0.25 | 0.5 | 0.5 | 0.3
CCCCCCCCC(O)CO (centres unmarked) [Comparative Example 4, Decane-1,2-diol] | 0.045 | 0.09 | 0.025 | 0.011 | 0.006
CCCCCCOCC(O)CO (centres unmarked) [Comparative Example 5, Hexyl glycerin] | 0.5 | 0.2 | 0.5 | 0.64 | 0.32
CCCCCCCCOCC(O)CO (centres unmarked) [Comparative Example 6, Octyl glycerin] | 0.5 | 0.5 | 0.5 | 0.25 | 0.5
CCCCC(CC)COCC(O)CO (centres unmarked) [Comparative Example 7, Ethylhexylglycerin] | 2 | 0.3 | 0.15 | 0.5 | 0.5
O=C/C=C/c1ccccc1 [Comparative Example 9, Cinnamaldehyde] | 0.1 | 0.05 | 0.03 | 0.02 | 0.03
COc1ccccc1/C=C/C=O [Comparative Example 10, 2-methoxycinnamaldehyde] | 0.4 | 0.02 | 0.02 | 0.005 | 0.005
CC(=O)CCc1ccc(O)cc1 [Comparative Example 11, Raspberry ketone] | 0.1 | 0.5 | 0.1 | 1 | 0.5
